Source: ChEMBL document CHEMBL4732144, “Discovery of a true bivalent dopamine D receptor agonist” (Eur J Med Chem, 2021)
Activity calls are given as the source filed them. The calls are words filed in the database; no cut-off is given here.

Assays:
D(2) dopamine receptor [1] = molecular target: T1, D(2) dopamine receptor (Homo sapiens, UniProt P14416); assay: Displacement of [3H]raclopride from human D2R isoform 2 stably expressed in HEK293 cell membranes measured after 1 hr by liquid scintillation counting method; design: species or system Membrane
T1 sequence (P14416 whole entry, canonical isoform): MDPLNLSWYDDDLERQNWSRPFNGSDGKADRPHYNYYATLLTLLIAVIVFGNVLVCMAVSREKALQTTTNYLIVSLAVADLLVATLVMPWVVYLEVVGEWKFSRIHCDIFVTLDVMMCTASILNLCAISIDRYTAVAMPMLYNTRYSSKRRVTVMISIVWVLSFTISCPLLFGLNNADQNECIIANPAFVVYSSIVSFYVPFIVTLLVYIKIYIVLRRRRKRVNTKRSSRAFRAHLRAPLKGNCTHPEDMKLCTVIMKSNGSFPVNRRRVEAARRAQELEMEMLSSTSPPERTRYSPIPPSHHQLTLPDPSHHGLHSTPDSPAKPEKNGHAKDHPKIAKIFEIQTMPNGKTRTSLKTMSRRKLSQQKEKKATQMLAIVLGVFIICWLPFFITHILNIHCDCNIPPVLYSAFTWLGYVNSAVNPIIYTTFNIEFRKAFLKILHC

D(2) dopamine receptor [2] = molecular target: T1, D(2) dopamine receptor; assay: Agonist activity at human D2R isoform 2 stably expressed in HEK293 cells assessed as inhibition of forskolin-induced increase of cAMP accumulation preincubated for 10 mins followed by forskolin addition by Glosensor cAMP reagent based luminescence assay; format: functional, cell-based
D(2) dopamine receptor [3] = molecular target: T1, D(2) dopamine receptor; assay: Agonist activity at human D2R isoform 2 stably expressed in HEK293 cells assessed as inhibition of forskolin-induced increase of cAMP accumulation preincubated for 10 mins followed by forskolin addition by Glosensor cAMP reagent based luminescence assay relative to IndAlk EC50; format: functional, cell-based
D(2) dopamine receptor [4] = molecular target: T1, D(2) dopamine receptor; assay: Displacement of [3H]raclopride from human D2R isoform 2 stably expressed in HEK293 cell membranes measured after 1 hr by liquid scintillation counting method relative to IndAlk Ki; details: Membrane
D(2) dopamine receptor [5] = molecular target: T1, D(2) dopamine receptor; assay: Displacement of [3H]raclopride from human D2R isoform 2 stably expressed in HEK293 cell membranes at 1 uM measured after 1 hr by liquid scintillation counting method; details: Membrane, filed as agonist
D(2) dopamine receptor [6] = molecular target: T1, D(2) dopamine receptor; assay: Displacement of [3H]raclopride from human D2R isoform 2 stably expressed in HEK293 cell membranes measured after 1 hr by liquid scintillation counting method relative to IndBipAlk Ki; details: Membrane
D(2) dopamine receptor [7] = molecular target: T1, D(2) dopamine receptor; assay: Agonist activity at human D2R isoform 2 stably expressed in HEK293 cells assessed as inhibition of forskolin-induced increase of cAMP accumulation preincubated for 10 mins followed by forskolin addition by Glosensor cAMP reagent based luminescence assay relative to IndBipAlk EC50; format: functional, cell-based

Row | Structure (SMILES) | Ki (D(2) dopamine receptor [1]) [nM] | EC50 (D(2) dopamine receptor [2]) [nM] | Ratio EC50 (D(2) dopamine receptor [3]) | Ratio Ki (D(2) dopamine receptor [4]) | inhibition (D(2) dopamine receptor [5]) | Ratio Ki (D(2) dopamine receptor [6]) | Ratio EC50 (D(2) dopamine receptor [7])
1 | C#CCCCCN(CCC)C1Cc2ccccc2C1 | 189 | 3.4 | – | – | – | – | –
2 | CCCN(CCCCNC(=O)c1ccc(-c2ccc(OCc3cn(CCOCCOCCOCCn4cc(COc5ccc(-c6ccc(C(=O)NCCCCN(CCC)C7Cc8ccccc8C7)cc6)cc5)nn4)nn3)cc2)cc1)C1Cc2ccccc2C1 | 270 | 292 | – | – | Active | 3.6 | 1.1
3 | C#CCOc1ccc(-c2ccc(C(=O)NCCCCN(CCC)C3Cc4ccccc4C3)cc2)cc1 | 970 | 321 | – | – | – | – | –
4 | CCCN(CCCCNC(=O)c1ccc(-c2ccc(OCc3cn(CCOCCOCCOCCOCCn4cc(COc5ccc(-c6ccc(C(=O)NCCCCN(CCC)C7Cc8ccccc8C7)cc6)cc5)nn4)nn3)cc2)cc1)C1Cc2ccccc2C1 | 250 | 542 | – | – | Active | 3.9 | 0.6

Now those with a lower Ki (D(2) dopamine receptor [1]), led by results:

Row | Ki (D(2) dopamine receptor [1]) [nM] | EC50 (D(2) dopamine receptor [2]) [nM] | Ratio EC50 (D(2) dopamine receptor [3]) | Ratio Ki (D(2) dopamine receptor [4]) | inhibition (D(2) dopamine receptor [5]) | Ratio Ki (D(2) dopamine receptor [6]) | Ratio EC50 (D(2) dopamine receptor [7]) | Structure (SMILES)
5 | 73 | 7.2 | 0.5 | 2.6 | Active | – | – | CCCN(CCCCc1cn(CCOCCOCCOCCn2cc(CCCCN(CCC)C3Cc4ccccc4C3)nn2)nn1)C1Cc2ccccc2C1
6 | 66 | 9.4 | 0.4 | 2.9 | Active | – | – | CCCN(CCCCc1cn(CCOCCOCCOCCOCCn2cc(CCCCN(CCC)C3Cc4ccccc4C3)nn2)nn1)C1Cc2ccccc2C1
7 | 59 | 65 | – | – | > 80% | 16.4 | 4.9 | CCCN(CCCCNC(=O)c1ccc(-c2ccc(OCc3cn(CCOCCOCCOCCOCCOCCn4cc(COc5ccc(-c6ccc(C(=O)NCCCCN(CCC)C7Cc8ccccc8C7)cc6)cc5)nn4)nn3)cc2)cc1)C1Cc2ccccc2C1
8 | 48 | 3.2 | 1.1 | 3.9 | Active | – | – | CCCN(CCCCc1cn(CCOCCOCCOCCOCCOCCn2cc(CCCCN(CCC)C3Cc4ccccc4C3)nn2)nn1)C1Cc2ccccc2C1
